Results published in patent publication US11168073B2, “3,3-difluoroallylamines or salts thereof and pharmaceutical compositions comprising the same” (YUHAN CORPORATION, priority 2018, dated 2021).
Where a name gives a salt, the structure may show the parent alone. Read-outs that look alike come from different tables or passages of the source.

Key:
Format in all cases: biochemical
[1] = molecular target: T1, recombinant human VAP-1 (Homo sapiens, UniProt Q16853); assay: Activity evaluation on recombinant human VAP-1 (Amplex Red/HRP-coupled hydrogen peroxide assay, benzylamine substrate); conditions: read-out: Inhibitory Activity (IC50, nM) human VAP-1
T1 construct: purchased R&D systems
T1 sequence (Q16853 1-763): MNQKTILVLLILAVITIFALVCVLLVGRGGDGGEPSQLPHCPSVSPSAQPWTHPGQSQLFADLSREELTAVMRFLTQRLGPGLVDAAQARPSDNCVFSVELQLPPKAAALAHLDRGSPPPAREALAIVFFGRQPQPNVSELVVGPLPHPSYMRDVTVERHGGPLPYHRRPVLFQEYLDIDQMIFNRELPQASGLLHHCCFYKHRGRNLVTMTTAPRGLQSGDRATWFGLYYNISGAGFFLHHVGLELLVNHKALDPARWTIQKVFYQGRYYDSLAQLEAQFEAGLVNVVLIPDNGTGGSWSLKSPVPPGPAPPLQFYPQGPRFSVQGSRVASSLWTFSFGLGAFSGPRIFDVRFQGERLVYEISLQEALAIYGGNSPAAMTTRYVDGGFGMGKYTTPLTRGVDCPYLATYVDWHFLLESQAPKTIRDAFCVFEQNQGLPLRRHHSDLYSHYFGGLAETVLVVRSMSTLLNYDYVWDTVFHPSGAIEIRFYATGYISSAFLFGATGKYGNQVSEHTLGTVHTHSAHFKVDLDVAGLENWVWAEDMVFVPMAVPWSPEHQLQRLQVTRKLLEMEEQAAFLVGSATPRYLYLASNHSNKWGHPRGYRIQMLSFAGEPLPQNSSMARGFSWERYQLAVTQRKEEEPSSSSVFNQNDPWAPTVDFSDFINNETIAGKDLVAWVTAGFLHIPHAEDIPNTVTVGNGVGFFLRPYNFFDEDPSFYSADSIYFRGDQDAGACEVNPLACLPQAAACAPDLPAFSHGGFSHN
How it was run: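 Hydrogen peroxide from benzylamine (1 mM) oxidation by human recombinant VAP-1 detected via HRP-coupled Amplex Red (200 uM) fluorescence, kinetic over 1–2 h. Enzyme and compound preincubated 30 min at 37 °C, pH 7.4 phosphate; 8-point dose response, signal-rate decrease versus DMSO control fitted to four-parameter logistic for IC50.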

[2] = molecular target: T2, recombinant human MAO-B (monoamine oxidase-B) (Homo sapiens, UniProt P27338); assay: Activity evaluation on recombinant human MAO-B (Amplex Red/HRP-coupled assay, 1 mM benzylamine substrate); conditions: read-out: Inhibitory Activity (IC50, nM) MAO-B
T2 construct: purchased Sigma-Aldrich
T2 sequence (P27338 1-520): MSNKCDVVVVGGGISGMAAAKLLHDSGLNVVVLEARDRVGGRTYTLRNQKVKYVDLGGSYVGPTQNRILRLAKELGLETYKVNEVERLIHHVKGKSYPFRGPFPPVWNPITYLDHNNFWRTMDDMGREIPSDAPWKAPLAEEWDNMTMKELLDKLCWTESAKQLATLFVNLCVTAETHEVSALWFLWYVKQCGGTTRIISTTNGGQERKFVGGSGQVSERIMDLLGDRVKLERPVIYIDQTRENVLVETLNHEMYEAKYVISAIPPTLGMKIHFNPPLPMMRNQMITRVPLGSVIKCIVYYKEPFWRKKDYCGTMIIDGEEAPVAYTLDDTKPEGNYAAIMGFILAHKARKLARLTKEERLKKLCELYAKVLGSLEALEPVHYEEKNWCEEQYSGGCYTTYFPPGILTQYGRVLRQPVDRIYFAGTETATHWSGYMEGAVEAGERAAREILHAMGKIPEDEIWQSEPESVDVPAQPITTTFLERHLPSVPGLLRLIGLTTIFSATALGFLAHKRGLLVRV
How it was run: (§1)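 Each oxidase is tested with its own substrate: MAO-A with 0.5 mM tyramine, MAO-B with 1 mM benzylamine, DAO with 1 mM putrescine. After 30 min enzyme-compound preincubation at 37 °C, Amplex Red (200 uM) plus HRP (1 U/mL) reports H2O2 as fluorescence; IC50 is fitted from eight-point curves.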

[3] = molecular target: T3, recombinant human DAO (diamine oxidase) (Homo sapiens, UniProt P19801); assay: Activity evaluation on recombinant human DAO (Amplex Red/HRP-coupled assay, 1 mM putrescine substrate); conditions: read-out: Inhibitory Activity (IC50, nM) DAO
T3 construct: purchased R&D systems
T3 sequence (P19801 20-751): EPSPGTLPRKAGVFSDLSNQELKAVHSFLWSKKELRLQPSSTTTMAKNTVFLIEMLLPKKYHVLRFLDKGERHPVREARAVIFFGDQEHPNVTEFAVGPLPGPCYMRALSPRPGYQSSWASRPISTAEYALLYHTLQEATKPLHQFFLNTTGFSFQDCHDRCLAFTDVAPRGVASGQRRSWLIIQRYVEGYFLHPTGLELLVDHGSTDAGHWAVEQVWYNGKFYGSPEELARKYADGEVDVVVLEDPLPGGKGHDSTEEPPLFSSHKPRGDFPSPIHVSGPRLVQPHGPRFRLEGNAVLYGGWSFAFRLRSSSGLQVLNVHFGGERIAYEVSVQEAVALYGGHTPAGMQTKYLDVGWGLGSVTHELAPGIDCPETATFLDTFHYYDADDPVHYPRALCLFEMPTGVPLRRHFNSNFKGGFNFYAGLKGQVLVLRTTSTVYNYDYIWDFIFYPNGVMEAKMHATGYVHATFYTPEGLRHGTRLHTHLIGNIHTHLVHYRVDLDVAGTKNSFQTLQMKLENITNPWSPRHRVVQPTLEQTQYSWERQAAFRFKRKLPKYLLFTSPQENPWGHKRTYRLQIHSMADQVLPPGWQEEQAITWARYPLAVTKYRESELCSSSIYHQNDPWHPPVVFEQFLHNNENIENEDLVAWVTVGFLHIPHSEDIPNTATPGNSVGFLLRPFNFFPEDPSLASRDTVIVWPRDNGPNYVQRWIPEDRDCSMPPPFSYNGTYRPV
How it was run: as §1

[4] = molecular target: T4, recombinant human MAO-A (monoamine oxidase-A) (Homo sapiens, UniProt P21397); assay: Activity evaluation on recombinant human MAO-A (Amplex Red/HRP-coupled assay, 0.5 mM tyramine substrate); conditions: read-out: Inhibitory Activity (IC50, nM) MAO-A
T4 construct: purchased Sigma-Aldrich
T4 sequence (P21397 1-527): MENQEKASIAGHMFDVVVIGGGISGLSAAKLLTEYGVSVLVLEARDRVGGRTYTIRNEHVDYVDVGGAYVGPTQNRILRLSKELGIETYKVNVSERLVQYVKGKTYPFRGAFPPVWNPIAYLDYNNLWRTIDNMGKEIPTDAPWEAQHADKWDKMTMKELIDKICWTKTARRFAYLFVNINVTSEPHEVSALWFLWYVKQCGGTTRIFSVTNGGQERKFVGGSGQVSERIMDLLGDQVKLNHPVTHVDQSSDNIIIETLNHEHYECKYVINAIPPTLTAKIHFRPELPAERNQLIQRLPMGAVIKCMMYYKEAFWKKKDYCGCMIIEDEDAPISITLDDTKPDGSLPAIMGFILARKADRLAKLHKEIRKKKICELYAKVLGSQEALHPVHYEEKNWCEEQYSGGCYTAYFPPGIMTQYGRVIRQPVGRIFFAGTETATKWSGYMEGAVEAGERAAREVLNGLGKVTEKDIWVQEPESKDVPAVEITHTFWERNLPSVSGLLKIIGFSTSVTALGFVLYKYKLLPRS
How it was run: as §1

[5] = recombinant human VAP-1, benzylamine substrate
[6] = recombinant human VAP-1, 30 min preincubation at 37° C., 1 mM benzylamine

| Compound | IC50 [1, 5] [nM] | IC50 ([2]; 1 mM benzylamine substrate) [nM] | IC50 ([3]; 1 mM putrescine substrate) [nM] | IC50 ([4]; 0.5 mM tyramine substrate) [nM] | IC50 [1, 6] [nM] | IC50 ([2]; 1 mM benzylamine) [nM] | IC50 ([3]; 1 mM putrescine) [nM] | IC50 ([4]; 0.5 mM tyramine) [nM] |
| --- | --- | --- | --- | --- | --- | --- | --- | --- |
| Cc1cc(-c2ccccc2Cn2cnn(CC(CN)=C(F)F)c2=O)cc2c1NC(=O)CC2 [Example 283, 6-[2-[[1-[2-(aminomethyl)-3,3-difluoro-allyl]-5-oxo-1,2,4-triazol-4-yl]methyl]phenyl]-8-methyl-3,4-dihydro-1H-quinolin-2-one Trifluoroacetate] | 154 | > 100000 | > 100000 | > 100000 | – | – | – | – |
| NCC(Cn1ncn(Cc2ccc(-c3ccc4cn[nH]c4c3)s2)c1=O)=C(F)F [Example 127, 2-[2-(aminomethyl)-3,3-difluoro-allyl]-4-[[5-(1H-indazol-6-yl)-2-thienyl]methyl]-1,2,4-triazol-3-one Trifluoroacetate] | – | – | – | – | 0.6 | 1070 | > 100000 | > 100000 |
| Cc1cc(-n2cnn(CC(CN)=C(F)F)c2=O)cnc1-c1ccc2c(c1)CCC(=O)N2C [Example 81, 6-[5-[1-[2-(aminomethyl)-3,3-difluoro-allyl]-5-oxo-1,2,4-triazol-4-yl]-3-methyl-2-pyridyl]-1-methyl-3,4-dihydroquinolin-2-one Trifluoroacetate] | – | – | – | – | 0.4 | 3500 | 27 | > 100000 |
| Cc1c(-c2ccc(N3CCNCC3)cc2)cccc1-n1cnn(CC(CN)=C(F)F)c1=O [Example 254, 2-[2-(aminomethyl)-3,3-difluoro-allyl]-4-[2-methyl-3-(4-piperazin-1-ylphenyl)phenyl]-1,2,4-triazol-3-one Ditrifluoroacetate] | 8 | > 100000 | > 100000 | > 100000 | – | – | – | – |
| Cc1cc(C#Cc2cnc3c(c2)OCCN3)cnc1-n1cnn(CC(CN)=C(F)F)c1=O [Example 245, 2-[2-(aminomethyl)-3,3-difluoro-allyl]-4-[5-[2-(3,4-dihydro-2H-pyrido[3,2-b][1,4]oxazin-7-yl)ethynyl]-3-methyl-2-pyridyl]-1,2,4-triazol-3-one ditrifluoroacetate] | 2.7 | 15000 | 14000 | > 100000 | – | – | – | – |
| CC(C)n1cc(-c2csc(Cn3cnn(CC(CN)=C(F)F)c3=O)c2)cn1 [Example 195, 2-[2-(aminomethyl)-3,3-difluoro-allyl]-4-[[4-(1-isopropylpyrazol-4-yl)-2-thienyl]methyl]-1,2,4-triazol-3-one Trifluoroacetate] | 2 | 38000 | 31000 | > 100000 | – | – | – | – |
| CS(=O)(=O)c1ccc(-c2ccc(-n3cnn(CC(CN)=C(F)F)c3=O)cn2)cc1 [Example 38, 2-[2-(aminomethyl)-3,3-difluoro-allyl]-4-[6-(4-methylsulfonylphenyl)-3-pyridyl]-1,2,4-triazol-3-one Trifluoroacetate] | – | – | – | – | 0.4 | 450 | 24 | > 100000 |
| Cc1cc(-c2ccc3c(c2)CCC(=O)N3C)cnc1-n1cnn(CC(CN)=C(F)F)c1=O [Example 74, 6-[6-[1-[2-(aminomethyl)-3,3-difluoro-allyl]-5-oxo-1,2,4-triazol-4-yl]-5-methyl-3-pyridyl]-1-methyl-3,4-dihydroquinolin-2-one Trifluoroacetate] | – | – | – | – | 0.3 | 7500 | 6500 | > 100000 |
| CS(=O)(=O)c1ccc(-c2ccccc2Cn2cnn(CC(CN)=C(F)F)c2=O)cc1 [Example 279, 2-[2-(aminomethyl)-3,3-difluoro-allyl]-4-[[2-(4-methylsulfonylphenyl)phenyl]methyl]-1,2,4-triazol-3-one Trifluoroacetate] | > 100 | > 100000 | > 100000 | > 100000 | – | – | – | – |
| NCC(Cn1ncn(Cc2ccc(-c3ccc4c(c3)C(=O)NCC4)s2)c1=O)=C(F)F [Example 132, 7-[5-[[1-[2-(aminomethyl)-3,3-difluoro-allyl]-5-oxo-1,2,4-triazol-4-yl]methyl]-2-thienyl]-3,4-dihydro-2H-isoquinolin-1-one Trifluoroacetate] | – | – | – | – | 0.2 | > 100000 | > 100000 | > 100000 |
| Cc1cc(-c2ccc(CCn3cnn(CC(CN)=C(F)F)c3=O)s2)cc2c1NC(=O)CC2 [Example 178, 6-[5-[2-[1-[2-(aminomethyl)-3,3-difluoro-allyl]-5-oxo-1,2,4-triazol-4-yl]ethyl]-2-thienyl]-8-methyl-3,4-dihydro-1H-quinolin-2-one Trifluoroacetate] | – | – | – | – | 0.6 | > 100000 | 350 | > 100000 |
| NCC(Cn1ncn(CCc2cccs2)c1=O)=C(F)F [Example 172, 2-[2-(aminomethyl)-3,3-difluoro-allyl]-4-[2-(2-thienyl)ethyl]-1,2,4-triazol-3-one Trifluoroacetate] | – | – | – | – | 13 | 61000 | > 100000 | > 100000 |
